Measured values as given in paper PMC13233288, “Spider venom peptides Ht1a and Gg1a are toxic to honeybee parasite Varroa destructor by topical application” (npj Drug Discovery, 2026).
“Also recorded” adds a separate entry of the source. No end group written: not given here.

Assays:
hNaV1.4 = assay: Automated whole-cell patch clamp, hNaV1.4 + β1 in HEK 293 cells; format: cell-based, human; conditions: 3 μM, 50 ms pulse to −20 mV from −90 mV, ECS with 0.1% BSA, at least 2 min
Procedure: To examine for off-target activity on mammalian ion channels and receptors, we first tested the activity of sHt1a and Gg1a against human NaV channels. Whole-cell patch-clamp recordings were performed on Human Embryonic Kidney (HEK) 293 cells stably expressing human NaV1.4 or NaV1.5 in conjunction with the β1 subunit (SB Drug Discovery, Glasgow, United Kingdom) using a QPatch II automated electrophysiology platform (Sophion Bioscience, Ballerup, Denmark). Whole-cell currents were filtered at 8 kHz and acquired at 25 kHz. The linear leak was corrected by P/4 subtraction (leak potential −90 mV, leak sweep amplitude 10%). Series resistance across recorded cells ranged between 5 and 10 MΩ. The extracellular solution (ECS) consisted of (in mM): 145 NaCl, 4 KCl, 2 CaCl2, 1 MgCl2, 10 HEPES, and 10 glucose, adjusted to pH 7.4 with NaOH and to 305 mOsm/L with sucrose. The intracellular solution (ICS) consisted of (in mM): 140 CsF, 1 EGTA, 5 CsOH, 10 HEPES, and 10 NaCl, adjusted to pH 7.3 with CsOH and 320 mOsm/L with sucrose. Currents were elicited from a holding potential of −90 mV delivered with a 50 ms depolarising pulse to −20 mV every 20 s (0.05 Hz). Peptides were diluted in ECS containing 0.1% BSA and applied to cells for at least 2 min at the concentrations stated. Peak currents were normalised to the buffer control.

V. destructor mites = assay: Topical application of synthetic peptides and oxalic acid to V. destructor mites; format: in vivo, Varroa destructor; conditions: 0.48 μg/mite in 0.5% Silwet (v/v); for earliest onset of mortality: 2-hourly recording between 0 and 48 h; for survival/mortality of V. destructor: n = 5 mites per group, up to 48 h, vs 0.5% Silwet control, two-way ANOVA, Dunnett
Procedure: An outline of the project discovery pipeline is presented in Supplementary Fig. 1. To identify varroacidal venom peptides, we screened venoms for activity against V. destructor by topical application. Topical tests were performed in several stages. First, whole venom was tested to determine mortality for V. destructor. Hit venoms were then subjected to several fractionation steps to isolate the active compounds. For the initial venom screen, a panel of 50 arthropod venoms (Table 1) were topically applied to V. destructor mites. Venoms were dissolved in 90% acetonitrile (v/v), and a 10 μg venom aliquot was applied per mite (n = 5 mites per venom). The dorsal plate of V. destructor mites (average mass 0.38 mg) was fixed to adhesive tape (ScotchTM 666 3 M; 19 × 32.9 mm, double sided) on microscope slides (ground edges 90° frosted end, 76 × 26 mm). A Nanoject II (Automatic Injector with Glass Capillaries, Drummond Cat.No. 3-000-205 A) was used for topical application of venom and control (90% acetonitrile) solutions. To accelerate solvent evaporation, the total volume of 483 nL was applied in seven aliquots of 69 nL each to the ventral plate of the mites between the posterior pair of legs. Each drop was allowed to dry before applying the next one, with the entire application procedure taking up to 1 h. Mite mortality was determined at various time intervals up to 48 h after the treatment using an Olympus stereomicroscope (SZX10/SZX2 Series). Initially, each mite was examined for movements of the legs, and immobile mites were stimulated with the tip of a wooden toothpick. Detection of static electricity by the mites, a few millimetres before the actual contact with the toothpick, was usually sufficient to trigger movement in mites that were still alive. […] At the later stage of the project, the slides with mites were placed into a self-constructed automated video monitoring system (using a USB camera) that employs an algorithm in OpenCV to subtract images from subsequent frames enabling the detection of changes in pixel intensity due to movements, for example of the extremities. Leg movements were stimulated with an air current applied over the mites at the time of image acquisition to determine mite mortality. The percentage of mite mortality for each venom was calculated at 2, 6 and 24 h, and adjusted by correcting for the mortality of the corresponding control group receiving only 90% acetonitrile.
The same procedure initially used for identifying varroacidal venoms was used for testing the topical activity of sHt1a and sGg1a. The peptides were dissolved in 0.5% Silwet L-77 (v/v), a silicone-based surfactant that is commonly used as a spreading agent for foliar sprays. 0.48 μg of peptide was topically applied to each mite, with n = 5 mites per treatment group. The activity of the sHt1a was confirmed using three cohorts of n = 5 mites, whereas the activity of sGg1a was confirmed using four cohorts of n = 5 mites. As a negative control, an equal volume of 0.5% Silwet (v/v) was topically applied (four cohorts of n = 5 mites), and 3% oxalic acid, a known varroacide used in commercial products[10] was used as positive control (eight cohorts of n = 5 mites). Mite mortality was recorded at 2-hourly intervals between 0 and 48 h after the treatment. For statistical analysis, mite survival data were plotted in Prism 10.0 (GraphPad Software, CA, USA), then a two-way ANOVA followed by Dunnett’s multiple comparisons test was performed, comparing the peptide and oxalic acid treatment against the respective 0.5% Silwet (v/v) control group data.

[1] = test system: hα3β2/4 nicotinic acetylcholine receptor (nAchR); assay: FLIPR Ca2+ fluorescence, nicotine-stimulated SH-SY5Y cells; format: cell-based, human; conditions: 10 µM, added 5 min prior to nicotine (30 µM)
Procedure: To further test the selectivity of sHt1a and sGg1a, we examined their activity on hNaV1.2/NaV1.7 and hCaV2.2 channels, as well as the hα3β2/4 nicotinic acetylcholine receptor (nAchR), that are endogenously expressed in the neuroblastoma cell line SH-SY5Y using a high-throughput fluorescent assay as previously described. In brief, SH-SY5Y cells were seeded at a density of 40,000 cells/well in black-walled imaging plates (Corning, Lowell, MA, USA), then incubated for 48 h at 37 °C in a 5% humidified CO2 incubator. On the day of the assay, cells were loaded with Calcium 4 No-wash dye (Molecular Devices) by reconstituting the lyophilised dye in physiological salt solution (PSS in mM: 140 NaCl, 11.5 glucose, 5.9 KCl, 1.4 MgCl2, 1.2 NaH2PO4, 5 NaHCO3, 1.8 CaCl2, 10 HEPES, pH 7.4). Cells were incubated with the dye for 30 min at 37 °C in a 5% humidified CO2 incubator. Gg1a and Ht1a (10 µM) were added 5 min prior to stimulation with either veratridine (50 µM, hNaV1.2/NaV1.7 activator), nicotine (30 µM, hα3β2/4 nAchR activator) or KCl/CaCl2 (90 mM/5 mM, CaV1.3/2.2 activator) Fluorescent responses were recorded using a FLIPR^Penta fluorescent plate reader (Molecular Devices) with excitation at 470–495 nm and emission at 515–575 nm.

| Substance | effect on hNaV1.4 currents (hNaV1.4) | effect on hNaV1.4 currents (hNaV1.4; listed as sGg1a) | earliest onset of mortality (V. destructor mites) [h] | survival/mortality of V. destructor (V. destructor mites) | survival/mortality of V. destructor (V. destructor mites; listed as sGg1a) | inhibition of nicotine-mediated Ca2+ influx (α3 nAChRs) [1] | effect on hNaV1.4 currents (hNaV1.4; listed as sHt1a) | survival/mortality of V. destructor (V. destructor mites; listed as sHt1a) | inhibition of nicotine-mediated Ca2+ influx (α3 nAChRs) ([1]; listed as sHt1a) |
| --- | --- | --- | --- | --- | --- | --- | --- | --- | --- |
| U1-macrothelitoxin-Gg1a | inactive | did not significantly affect | 16 | induced topical mortality; also recorded: reduced varroa mite but not honeybee survival; also recorded: lethal to varroa mites | significantly reduced the survival; also recorded: significantly reduced V. destructor survival | inactive |  |  |  |
| KYCAPRKAVCNTPADCCDKSSRCAYPNYGLGYYLDSEFFGKRKICSWRL (also: bicyclic or more (positions not given here)) [Ht1a, μ-gradutoxin-Ht1a] | inactive |  | 34 | induced topical mortality; also recorded: reduced varroa mite but not honeybee survival; also recorded: lethal to varroa mites |  | partially blocked | did not significantly affect | significantly reduced the survival; also recorded: significantly reduced V. destructor survival | partial inhibition |
